According to patent publication US9434711B2 (Janssen Pharmaceutica, NV, priority 2007, dated 2016):

Target: canine TRPM8 (Canis lupus familiaris, UniProt Q1A7N1)
Test: In Vitro Canine TRPM8 Functional Assay (Ca2+ fluorescence, icilin activation)
Type: cell-based
Conditions: for inhibition at 0.2 µM / % Inh @ 0.2 (μM): compound at 0.2 μM, canine TRPM8, icilin activation; for inhibition at 0.2 µM: read-out: % Inh @ 0.2; for IC50: HEK293 cells stably expressing canine TRPM8, icilin activation, eight-point dose-response, read-out: IC50
Summary of the method: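 Canine TRPM8 stably expressed in HEK293; compound added 5 min before icilin challenge (~80% max response), with fluorescent Ca2+ signal tracked throughout.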

Sequence of canine TRPM8 (Q1A7N1 1-1104): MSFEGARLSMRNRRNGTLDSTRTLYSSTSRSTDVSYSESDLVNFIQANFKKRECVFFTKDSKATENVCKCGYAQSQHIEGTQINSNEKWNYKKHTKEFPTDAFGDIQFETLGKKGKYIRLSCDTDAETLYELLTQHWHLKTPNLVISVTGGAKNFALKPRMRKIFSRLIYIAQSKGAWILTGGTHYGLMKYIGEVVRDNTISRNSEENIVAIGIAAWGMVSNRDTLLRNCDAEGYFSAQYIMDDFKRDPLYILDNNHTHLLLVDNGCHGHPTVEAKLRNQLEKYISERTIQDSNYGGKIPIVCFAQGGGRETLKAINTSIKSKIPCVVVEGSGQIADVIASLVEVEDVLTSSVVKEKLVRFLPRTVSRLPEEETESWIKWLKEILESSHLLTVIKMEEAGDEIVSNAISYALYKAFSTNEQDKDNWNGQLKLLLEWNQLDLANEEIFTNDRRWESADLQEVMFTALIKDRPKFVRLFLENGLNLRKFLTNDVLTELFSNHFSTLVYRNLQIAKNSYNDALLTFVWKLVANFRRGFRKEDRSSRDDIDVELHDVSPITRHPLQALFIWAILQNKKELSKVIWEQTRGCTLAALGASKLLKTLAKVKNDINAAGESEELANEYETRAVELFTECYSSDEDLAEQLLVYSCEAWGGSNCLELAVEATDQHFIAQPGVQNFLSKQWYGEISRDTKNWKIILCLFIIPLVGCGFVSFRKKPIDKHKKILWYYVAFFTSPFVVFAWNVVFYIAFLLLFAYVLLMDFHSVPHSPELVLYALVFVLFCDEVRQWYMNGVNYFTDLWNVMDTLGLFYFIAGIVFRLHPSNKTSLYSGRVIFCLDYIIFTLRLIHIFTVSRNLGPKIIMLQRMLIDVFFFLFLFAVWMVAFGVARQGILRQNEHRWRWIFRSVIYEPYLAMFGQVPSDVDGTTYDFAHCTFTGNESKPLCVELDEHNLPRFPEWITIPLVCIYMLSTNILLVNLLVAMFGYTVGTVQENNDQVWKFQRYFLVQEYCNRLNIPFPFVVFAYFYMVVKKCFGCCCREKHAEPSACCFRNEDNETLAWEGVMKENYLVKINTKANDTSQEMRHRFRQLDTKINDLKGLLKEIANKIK

Row | SMILES | inhibition at 0.2 µM | IC50 | % Inh @ 0.2 (μM)
1 | CCCCN(c1cc2ccccc2s1)S(=O)(=O)c1ccc(N2CCN(C)CC2)cc1 [Compound 447, N-(Benzo[b]thiophen-2-yl)-N-(butyl)-4-(4-methyl-piperazin-1-yl)-benzenesulfonamide] | 19% |  | 
2 | CCCCN(c1sc2ccccc2c1C)S(=O)(=O)c1cccnc1N(C)C [Compound 448, N-(3-Methyl-benzo[b]thiophen-2-yl)-N-(butyl)-2-dimethylamino-pyridin-3-yl-sulfonamide] | 102% | 12 nM | 
3 | CCCCN(c1cc2ccccc2s1)S(=O)(=O)c1ccc(-c2nnn[nH]2)cc1 [Compound 449, N-(Benzo[b]thiophen-2-yl)-N-(butyl)-4-(1H-tetrazol-5-yl)-benzenesulfonamide] | 97% | 88 nM | 
4 | CCCCN(c1sc2cc(F)ccc2c1C)S(=O)(=O)c1ccc(C(=O)O)cc1 [Compound 450, N-(6-Fluoro-3-methyl-benzo[b]thiophen-2-yl)-N-(butyl)-4-carboxy-benzenesulfonamide] | 101% | 29 nM | 
5 | O=C(O)c1ccc(S(=O)(=O)N(CCCC(F)(F)F)c2cc3ccccc3s2)cc1 [Compound 451, N-(Benzo[b]thiophen-2-yl)-N-(4,4,4-trifluoro-butyl)-4-carboxy-benzenesulfonamide] | 97% | 68 nM | 
6 | CC(C)CN(c1sc2ccccc2c1Br)S(=O)(=O)c1ccc(C(=O)O)cc1 [Compound 452, N-(3-Bromo-benzo[b]thiophen-2-yl)-N-(isobutyl)-4-carboxy-benzenesulfonamide] | 101% | 18 nM | 
7 | O=C(O)c1ccc(S(=O)(=O)N(CCOC2CCCCC2)c2sc3ccccc3c2Br)cc1 [Compound 453, N-(3-Bromo-benzo[b]thiophen-2-yl)-N-(2-(cyclohexyloxy)ethyl)-4-carboxy-benzenesulfonamide] | 101% | 2 nM | 
8 | COC(C)(C)CCN(c1sc2ccccc2c1Br)S(=O)(=O)c1ccc(C(=O)O)cc1 [Compound 454, N-(3-Bromo-benzo[b]thiophen-2-yl)-N-(3-methoxy-3-methylbutyl)-4-carboxy-benzenesulfonamide] | 101% | 4 nM | 
9 | Cc1c(N(Cc2ccc(F)c(C(F)(F)F)c2)S(=O)(=O)c2cccc(-c3nnn[nH]3)c2)sc2ccccc12 [Compound 455, N-(3-Methyl-benzo[b]thiophen-2-yl)-N-(4-fluoro-3-trifluoromethyl-benzyl)-3-(1H-tetrazol-5-yl)-benzenesulfonamide] | 101% | 36 nM | 
10 | O=C(O)c1ccc(S(=O)(=O)N(CCC(F)(F)F)c2cc3ccccc3s2)cc1 [Compound 456, N-(Benzo[b]thiophen-2-yl)-N-(3,3,3-trifluoro-propyl)-4-carboxy-benzenesulfonamide] | 67% |  | 
11 | CN(C)C(=O)c1c(N(Cc2ccc(F)c(C(F)(F)F)c2)S(=O)(=O)c2ccccc2)sc2ccccc12 [Compound 457, N-(3-Dimethyl-carbamoyl-benzo[b]thiophen-2-yl)-N-(4-fluoro-3-trifluoromethyl-benzyl)-benzenesulfonamide] |  | 47 nM | 93%
12 | CNC(=O)c1c(N(Cc2ccc(F)c(C(F)(F)F)c2)S(=O)(=O)c2ccccc2)sc2ccccc12 [Compound 458, N-(3-Methyl-carbamoyl-benzo[b]thiophen-2-yl)-N-(4-fluoro-3-trifluoromethyl-benzyl)-benzenesulfonamide] |  | 12 nM | 102%
13 | NC(=O)c1c(N(Cc2ccc(F)c(C(F)(F)F)c2)S(=O)(=O)c2ccccc2)sc2ccccc12 [Compound 459, N-(3-Carbamoyl-benzo[b]thiophen-2-yl)-N-(4-fluoro-3-trifluoromethyl-benzyl)-benzenesulfonamide] | 102% | 9 nM | 
14 | CC(=O)C1=C(N(Cc2ccc(F)c(C(F)(F)F)c2)S(=O)(=O)c2ccccc2)S(=O)(=O)c2ccccc21 [Compound 460, N-(3-Acetyl-1,1-dioxo-1H-benzo[b]thiophen-2-yl)-N-(4-fluoro-3-trifluoromethyl-benzyl)-benzenesulfonamide] | 102% | 8 nM | 
15 | CN(C)S(=O)(=O)c1cccc(S(=O)(=O)N(CCC(F)(F)F)c2cc3ccccc3s2)c1 [Compound 461, N-(Benzo[b]thiophen-2-yl)-N-(3,3,3-trifluoro-propyl)-3-dimethylsulfamoyl-benzenesulfonamide] | 30% |  | 
16 | CN(C)S(=O)(=O)c1cccc(S(=O)(=O)N(Cc2ccc(F)c(C(F)(F)F)c2)c2cc3ccccc3s2)c1 [Compound 462, N-(Benzo[b]thiophen-2-yl)-N-(4-fluoro-3-trifluoromethyl-benzyl)-3-N′,N′-dimethylsulfamoyl-benzenesulfonamide] |  |  | 22%
17 | CC(C)(O)C1=C(N(Cc2ccc(F)c(C(F)(F)F)c2)S(=O)(=O)c2ccccc2)S(=O)(=O)c2ccccc21 [Compound 463, N-(4-Fluoro-3-trifluoromethyl-benzyl)-N-[3-(1-hydroxy-1-methyl-ethyl)-1,1-dioxo-benzo[b]thiophen-2-yl]-benzenesulfonamide] | 101% | 26 nM | 
18 | CC(O)C1=C(N(Cc2ccc(F)c(F)c2)S(=O)(=O)c2ccccc2)S(=O)(=O)c2ccccc21 (stereo not drawn) [Compound 464, N-(3,4-Difluoro-benzyl)-N-[3-(1-hydroxy-ethyl)-1,1-dioxo-benzo[b]thiophen-2-yl]-benzenesulfonamide] | 102% | 7 nM | 
19 | CCCCN(c1sc2ccccc2c1C(N)=O)S(=O)(=O)c1ccc(C(=O)OC)cc1 [Compound 465, N-(Butyl)-N-(3-carbamoyl-benzo[b]thiophen-2-yl)-4-carbomethoxy-benzenesulfonamide] | 90% | 63 nM | 
20 | CCCCN(c1sc2ccccc2c1C(=O)NC)S(=O)(=O)c1ccc(C(=O)OC)cc1 [Compound 466, N-(Butyl)-N-(3-methyl-carbamoyl-benzo[b]thiophen-2-yl)-4-carbomethoxy-benzenesulfonamide] |  |  | 66%
21 | CCCCN(c1sc2ccccc2c1C(=O)N(C)C)S(=O)(=O)c1ccc(C(=O)OC)cc1 [Compound 467, N-(Butyl)-N-(3-dimethyl-carbamoyl-benzo[b]thiophen-2-yl)-4-carbomethoxy-benzenesulfonamide] |  | 20 nM | 100%
22 | CCCCN(c1sc2ccccc2c1C(N)=O)S(=O)(=O)c1ccc(C(=O)O)cc1 [Compound 468, N-(Butyl)-N-(3-carbamoyl-benzo[b]thiophen-2-yl)-4-carboxy-benzenesulfonamide] | 16% |  | 
23 | CCCCN(c1sc2ccccc2c1C(=O)N(C)C)S(=O)(=O)c1ccc(C(=O)O)cc1 [Compound 469, N-(Butyl)-N-(3-dimethylcarbamoyl-benzo[b]thiophen-2-yl)-4-carboxy-benzenesulfonamide] | 13% |  | 
24 | CCCCN(c1cc2ccccc2s1)S(=O)(=O)c1ccc(C2=NOS(=O)N2)cc1 (stereo not drawn) [Compound 470, N-(Benzo[b]thiophen-2-yl)-N-(butyl)-4-(3H-[1,2,3,5]oxathiadiazole-2-oxide)-benzenesulfonamide] |  |  | 15%
25 | CCCCN(c1cc2ccccc2s1)S(=O)(=O)c1ccc(C(N)=NO)cc1 [Compound 471, N-(Benzo[b]thiophen-2-yl)-N-(butyl)-4-N-hydroxy-benzamidinesulfonamide] |  | 59 nM | 97%
